The results in this text go back to patent US11981729B2, “Method” (Agency for Science, Technology and Research, priority 2020, dated 2024).

For experiment [1], the system named is NIH3T3vSrc cells. The experiment is described as follows: Invadosome rosette formation after Cnx depletion. Type of experiment: cell-based, mouse. As to conditions: siCnx vs siNT5. The procedure:
siRNA oligonucleotides were purchased from Dharmacon. Endogenous Cnx was depleted by 2 rounds of siRNA transfection. Briefly, cells were first treated by reverse transfection with 25 nM of control siRNA (5′-UGGUUUACAUGUCGACUAA-3′) or siRNA against Cnx (5′-[…]-3′) using Lipofectamine RNAiMAX (ThermoFisher Scientific). The day after, cells were treated again by forward transfection with nM siRNA diluted in Opti-MEM medium (Gibco) and incubated 5 more days before analyzing.
(§1) To better understand this Cnx requirement, we tested whether Cnx depletion affected invadosomes formation, which we measured in NIH3T3vSrc because of the abundance of invadosomes and ease of detection in these cells (FIG. 2E). Given the lack of effect, we hypothesized an effect on Matrix Metalloproteinases and measured MMP2, 9 and 14 abundance by western blot (FIG. 8F). We also measured MMPs activity in a cell lysate and MMP14 localization in invadosomes rosettes after Cnx depletion (FIG. 8G, FIG. 8H).

Experiment [2] has as its system MMPs. The experiment is described as follows: FRET-based MMP activity assay on cell lysates. The class given is biochemical. As to conditions: MDA ER-G2 after Cnx depletion. As for the experimental part: In order to quantify total MMP activity, we used a FRET-based MMP activity assay kit (ab112147), on cell lysates, according to the manufacturer's protocol. Fluorescence was read at 540 nm using a microplate reader (Tecan) every 5 min for 2 h.
as §1

The subject of experiment [3] is NIH3T3vSrc cells. The experiment is described as follows: Cell-mediated ECM disulfide bond reduction (NEM / OX133 staining). The class given is cell-based, mouse. As to conditions: NIH3T3vSrc on rat tail ECM, GM6001 and NEM, 16 hours; Cnx depleted vs control cells. The source says: In the ER, the Cnx-ERp57 complex mediates the formation and isomerization of disulfide bonds in neo-synthesized proteins^40. To explain the surprising requirement of the same complex for matrix degradation, we hypothesized it could mediate the reduction of disulfide bonds in extracellular ECM fibers. To reveal disulfide bonds in ECM preparations, we used the reducing agent tris(2-carboxyethyl)phosphine (TCEP), followed by reaction with N-ethylmaleimide (NEM). […] To test whether disulfide bonds are present in liver ECM, we prepared decellularized mouse liver tissue. The decellularized matrix presented as a meshwork with a diamond-shaped pattern, the fibers staining for Collagen I, III, IV, and fibronectin (FIGS. 4B, FIG. 9A, FIG. 9B). […] We also tested the commercially-sourced liver porcine ECM and the rat tail connective tissue and obtained in both cases an abundant staining with OX133 after TECP/NEM treatment (FIG. 9C). This staining was entirely dependent on TCEP and NEM. In all cases, most of the OX133 signal colocalized with collagen fibers.
To test if cells are able to reduce these disulfide bonds, the actively degrading NIH3T3vSrc cells were sparsely seeded on rat tail ECM. The cells were treated with the MMP inhibitor GM6001 to prevent collagen degradation. NEM was then added to reveal reduced cysteines and after 16 hours, coverslips were fixed and labeled. […]

The subject of experiment [4] is MMP14. As to the kind of experiment: MMP14 localization in invadosome rosettes (immunofluorescence). Type of experiment: cell-based. As to conditions: NIH3T3vSrc after Cnx depletion. The procedure: Cells were seeded on coverslips, at 70 000 cells per well in a 24-well plate (ThermoFisher Scientific) and incubated overnight. Cells were fixed with 4% paraformaldehyde (PFA) in Phosphate Buffered Saline (PBS, Gibco) for 10 min, rinsed 3 times with PBS and then permeabilized with 0.2% Triton X-100 for 10 min. Cells were incubated with primary antibodies (1/100 diluted in 2% FBS-PBS) for 1 h 30 at room temperature, rinsed 3 times with PBS and incubated with secondary antibodies (1/200 diluted in 2% FBS-PBS) for 40 min before being rinsed and mounted on microscope slides.
as §1

Experiment [5] has as its system MMP2, 9 and 14. As to the kind of experiment: MMP protein level by western blot after Cnx depletion. Type of experiment: cell-based. As to conditions: NIH3T3vSrc after Cnx depletion. The procedure:
Cells were washed twice with ice-cold PBS, scraped in ice-cold RIPA lysis buffer (50 mM Tris, 200 mM NaCl, 0.5% NP-40, Complete and PhoStop inhibitor [Roche Applied Science]) and lysed for 30 min at 4° C. Lysates were then clarified by centrifugation at 13000 g for 10 min at 4° C. Lysate concentrations were determined using Bradford reagent (Bio-Rad). Lysates were boiled at 95° C. for 5 min and separated by SDS-PAGE electrophoresis using 4-12% Bis-Tris NuPage gels (Invitrogen) at 180V for 70 min. Samples were then transferred on nitrocellulose membranes using iBlot transfer system (Invitrogen) and blocked using 3% BSA dissolved in TBST (50 mM Tris, 150 mM NaCl and 0.1% Tween-20) for 1 h at room temperature. Membranes were then incubated with primary antibodies (1/1000 diluted in 3% BSA-TBST) overnight at 4° C. […]
as §1
In general terms: Immunoblotting shows a protein as a band on a membrane.

For experiment [6], the system named is NIH3T3vSrc cells. The experiment is described as follows: ECM degradation assay, NIH3T3vSrc on rat tail ECM. The class given is cell-based, mouse. As to conditions: for ECM degradation: 1 mM GSH supplemented, or GPx and H2O2, vs untreated cells. As for the experimental part: (§2) Gelatin (#G1393, Sigma) was first coupled to 5-carboxy-X-rhodamine succinimidyl ester (#C-6125, ThermoFisher Scientific). Sterile coverslips were coated with gelatin for 20 min, then fixed with 0.5% glutaraldehyde (#15960, Electron Microscopy Sciences) for 40 min. After washing, a layer of 0.5 mg/ml type I collagen (#354236 rat tail, Corning) was coated onto these gelatin coverslips and incubated 4 h at 37° C. before cell seeding. Cells were incubated overnight before fixation and staining. At least 20 images were acquired for each condition, experiments were done in 3 biological replicates. The area of degradation was quantified using ImageJ and normalized to the number of nuclei in each image. To study the involvement of GSH in collagen disulfide bond reduction, cells were seeded on red gelatin and collagen I coated coverslips to proceed to ECM degradation assay. Cells were incubated 2 h to adhere and where then incubated with 1 mM L-gluthatione reduced (GSH #4251, Sigma Aldrich) overnight before fixation. For the opposite experiment, cells were seeded into red gelatin and collagen I coated coverslips, incubated 2 h to adhere and treated with 10 mg GPx1 (SRP-8010, Sigma Aldrich) and H2O2 every 30 min for 6 hours before fixation. ECM degradation quantification was performed as described above. siRNA oligonucleotides were purchased from Dharmacon. Endogenous Cnx was depleted by 2 rounds of siRNA transfection. Briefly, cells were first treated by reverse transfection with 25 nM of control siRNA ([NT]) or siRNA against [NT]) using Lipofectamine RNAiMAX (ThermoFisher Scientific). The day after, cells were treated again by forward transfection with nM siRNA diluted in Opti-MEM medium (Gibco) and incubated 5 more days before analyzing. Since GALA stimulates ECM degradation and Cnx is present in the responsible subcellular structures, we next asked whether surface Cnx is involved in this activity. […] We quantified ECM degradative activity by measuring the loss of fluorescent gelatin using automated image analysis (FIG. 8C). […]

In experiment [7] the test system is MDA ER-G2 cells. The experiment is described as follows: ECM degradation assay, MDA ER-G2 on rat tail ECM. The class given is cell-based, human. As to conditions: for ECM degradation after ECM pre-treatment: ECM pre-treated before cell seeding; for ECM degradation: MDA ER-G2, 1 mM GSH supplemented, or GPx and H2O2, vs untreated cells. As for the experimental part:
as §2, with “image. To chemically reduce collagen disulfide bonds before cell seeding and ECM degradation assay, a 0.5 mg/ml type I collagen matrix was coated onto red gelatin coverslips and incubated 4 h at 37° C. for polymerization. Collagen was incubated with 2.5 mM TCEP (#64, 654-7, Sigma Aldrich) for 30 min at room temperature, rinsed 3 times with 1% BSA in PBS, and incubated with 5 mM N-ethylmaleimide (NEM #23030, ThermoFisher Scientific) for 30 min at room temperature. Coverslips were gently rinsed 3 more times with 1% BSA in PBS before cell seeding and ECM degradation assay.” for “image.”, “activity. To measure ECM degradation, we used a sandwich of fluorescently labeled gelatin overlaid with native ECM of different sources.” for “activity.”

For 5′-CAAGAGUGGUCCUAGGAGAUU-3′ [siCnx], the “rosette formation (number of rosettes per cell and percentage of cells making rosettes)” value in experiment [1] is “non significant”. Moreover, in experiment [2], the “MMPs activity in a cell lysate” value is reported as “could not detect any difference”. Further, the “OX133 staining of ECM (reduced disulfide bonds)” value in experiment [3] was “significantly reduced”. In experiment [4], the “MMP14 localization in invadosomes rosettes” value is “could not detect any difference”. Moreover, the “MMP2, 9 and 14 abundance by western blot” value in experiment [5] is reported as “could not detect any difference”. In addition, the matrix degradation result in experiment [6] (siRNA depletion vs control siRNA (siNT5), listed as siRNA targeting Cnx) is given as “similarly reduced ECM degradation”.

Consider `Cl.O=C(O)CCP(CCC(=O)O)CCC(=O)O` [TCEP, Tris(2-carboxyethyl)phosphine hydrochloride], for which the “ECM degradation after ECM pre-treatment” value in experiment [7] (MDA ER-G2 control cells) is given as “stimulatory effect on ECM degradation”; in experiment [7] (MDA ER-G2 depleted of Cnx or ERp57), “completely reversed the inhibitory effect of Cnx depletion”.

As for `N[C@@H](CCC(=O)N[C@@H](CS)C(=O)NCC(=O)O)C(=O)O` [GSH, L-gluthatione reduced], the ECM degradation entry in experiment [7] and in experiment [6] was “more efficient at ECM degradation” throughout.

B1: GPx: GSH peroxidase GPx1 (SRP-8010, Sigma Aldrich), given to cells together with H2O2 (protein, UniProt P00435 1-205, looked up)
Glutathione peroxidase 1: MCAAQRSAAALAAAAPRTVYAFSARPLAGGEPFNLSSLRGKVLLIENVASLUGTTVRDYTQMNDLQRRLGPRGLVVLGFPCNQFGHQENAKNEEILNCLKYVRPGGGFEPNFMLFEKCEVNGEKAHPLFAFLREVLPTPSDDATALMTDPKFITWSPVCRNDVSWNFEKFLVGPDGVPVRRYSRRFLTIDIEPDIETLLSQGASA
Take B1: the ECM degradation result in experiment [7] and in experiment [6] was “less efficient ECM degradation” in each case.
